Values quoted from earlier work as cited in PubChem BioAssay AID1259409 (Chemical Carcinogenesis Research Information System (CCRIS), 2018).

System: rodent chemically induced tumor inhibition, incidence and multiplicity
Assay: CCRIS tumor inhibitor studies

## CC(=O)/C=C/C1=C(C)CCCC1(C)C
Carcinogen: 7,12-DIMETHYLBENZ[A]ANTHRACENE, 57-97-6, Dose [Inhibitor]: 0, 36 MMOL/KG IN DIET FOR 24 WK BEGINNING 2 WK PRIOR TO CARCINOGEN DOSE (STUDY DURATION: 24 WK), Route [Inhibitor]: ORAL, Species: RAT, Strain/Sex: SPRAGUE-DAWLEY/FEMALE, Target Tissue: Type of Lesion: MAMMARY GLAND: TUMOR, Dose [Carcinogen]: 65 MG/KG BW ONCE, Promoter: NONE USED
  tumour outcome (control, treated, inhibition, significance): 91%, 41%, 55%, not calculated
Dose [Inhibitor]: 0, 1000 PPM IN DIET BEGINNING 8 WK PRIOR TO CARCINOGEN AND CONTINUING FOR 6 WK POST CARCINOGEN (STUDY DURATION: 68 WK), Route [Inhibitor]: ORAL, Species: FISH, Strain/Sex: RAINBOW TROUT, Target Tissue: Type of Lesion: LIVER: HEPATOCELLULAR CARCINOMA, Dose [Carcinogen]: 20 PPB IN DIET FOR 2 WK, Promoter: NONE USED
  tumour outcome (control, treated, inhibition, significance): 43/118 (36%), 38/118 (32%), 11%, not significant

## Nc1ncn[nH]1
Carcinogen: DIETHYLSTILBESTROL, 56-53-1, Dose [Inhibitor]: 0, 1500 PPM IN DRINKING WATER 47 D POST FIRST DOSE OF CARCINOGEN (STUDY DURATION: 6 MO), Route [Inhibitor]: ORAL, Species: RAT, Strain/Sex: WF/MALE, Target Tissue: Type of Lesion: LIVER: HEPATOCELLULAR CARCINOMA, Dose [Carcinogen]: 5 MG ONTO BACK 1/2 MO FOR 6 MO, Promoter: NONE USED
  tumour outcome (control, treated, inhibition, significance): 1/9 (11%), 0/11 (0%), 100%, not calculated
Carcinogen: DIETHYLSTILBESTROL, 56-53-1, Dose [Inhibitor]: 0, 1500 PPM IN DRINKING WATER 47 D POST FIRST DOSE OF CARCINOGEN (STUDY DURATION: 6 MO), Route [Inhibitor]: ORAL, Species: RAT, Strain/Sex: WF/MALE, Target Tissue: Type of Lesion: PITUITARY: TUMOR, Dose [Carcinogen]: 5 MG ONTO BACK 1/2 MO FOR 6 MO, Promoter: NONE USED
  tumour outcome (control, treated, inhibition, significance): 7/9 (78%), 8/11 (73%), 6%, not significant

## CC1=CCC(O)(C(C)C)CC1 (stereo unspecified)
Carcinogen: 7,12-DIMETHYLBENZ[A]ANTHRACENE (57-97-6), Dose [Inhibitor]: 10 MG/KG BW DAILY BETWEEN 45 AND 59 D OF AGE (STUDY DURATION: 1 YR), Route [Inhibitor]: INTRAGASTRIC (GASTRIC) IN HYDROXYETHYLCELLULOSE SODIUM, Species: RAT, Strain/Sex: SPRAGUE-DAWLEY/FEMALE, Target Tissue: Type of Lesion: MAMMARY: ADENOCARCINOMA, Dose [Carcinogen]: 75 MG/KG BW IN SESAME OIL (ONCE) AT 60 D OF AGE
  outcome: 75%, 85%
Carcinogen: 7,12-DIMETHYLBENZ[A]ANTHRACENE (57-97-6), Dose [Inhibitor]: 10 MG/KG BW DAILY FOR 6 MO AFTER CARCINOGEN ADMINISTRATION, Route [Inhibitor]: INTRAGASTRIC (GASTRIC), Species: RAT, Strain/Sex: SPRAGUE-DAWLEY/FEMALE, Target Tissue: Type of Lesion: MAMMARY: ADENOCARCINOMA, Dose [Carcinogen]: 75 MG/KG BW AT 55 D OF AGE (STUDY DURATION: 1 YR)
  outcome: 75%, 58%

## CSC(=S)NCc1c[nH]c2ccccc12
Carcinogen: 7,12-DIMETHYLBENZ[A]ANTHRACENE, 57-97-6, Dose [Inhibitor]: 0, 0.5% IN 0.2 ML ACETONE APPLIED 1 HR PRIOR TO PROMOTER DOSE 2/WK FOR 12 WK (STUDY DURATION: 90 D), Route [Inhibitor]: DERMAL, Species: MOUSE, Strain/Sex: CD-1/MALE, Target Tissue: Type of Lesion: SKIN: TUMOR, Dose [Carcinogen]: 50 UG IN 0.2 ML ACETONE ONCE, Promoter: 12-O-TETRADECANOYLPHORBOL-13-ACETATE, 16561-29-8
  tumour outcome (control, treated, inhibition, significance): 95%, 65%, 32%, not significant
Carcinogen: 7,12-DIMETHYLBENZ[A]ANTHRACENE, 57-97-6, Dose [Inhibitor]: 0, 1% IN 0.2 ML ACETONE APPLIED 1 HR PRIOR TO PROMOTER DOSE 2/WK FOR 12 WK (STUDY DURATION: 90 D), Route [Inhibitor]: DERMAL, Species: MOUSE, Strain/Sex: CD-1/MALE, Target Tissue: Type of Lesion: SKIN: TUMOR, Dose [Carcinogen]: 50 UG IN 0.2 ML ACETONE ONCE, Promoter: 12-O-TETRADECANOYLPHORBOL-13-ACETATE, 16561-29-8
  tumour outcome (control, treated, inhibition, significance): 95%, 50%, 50%, p<0.03
Carcinogen: 7,12-DIMETHYLBENZ[A]ANTHRACENE, 57-97-6, Dose [Inhibitor]: 0, 1% IN 0.2 ML ACETONE APPLIED 1 HR PRIOR TO PROMOTER DOSE 2/WK FOR 12 WK BEGINNING 5 D PRIOR TO CARCINOGEN DOSE (STUDY, Route [Inhibitor]: DERMAL, Species: MOUSE, Strain/Sex: CD-1/MALE, Target Tissue: Type of Lesion: SKIN: TUMOR, Dose [Carcinogen]: 50 UG IN 0.2 ML ACETONE ONCE, Promoter: 12-O-TETRADECANOYLPHORBOL-13-ACETATE, 16561-29-8
  tumour outcome (control, treated, inhibition, significance): 95%, 55%, 42%, p<0.03

## O=C(/C=C/c1ccc(O)c(C2C(c3ccc(O)cc3)Oc3cc(O)ccc3C2c2cc(C3OC(c4ccc(O)cc4)C(C(=O)c4ccc(O)cc4O)C3Cc3ccc(O)cc3)c(O)cc2O)c1)c1ccc(O)cc1O (stereo unspecified)
Carcinogen: 7,12-DIMETHYLBENZ[A]ANTHRACENE, 57-97-6, Dose [Inhibitor]: 0, 16 NMOL 2/WK 1 HR PRIOR TO EACH PROMOTER DOSE FOR 20 WK (STUDY DURATION: 20 WK), Route [Inhibitor]: DERMAL, Species: MOUSE, Strain/Sex: ICR/FEMALE, Target Tissue: Type of Lesion: SKIN: TUMOR, Dose [Carcinogen]: 0.19 UMOL ONCE, Promoter: 12-0-TETRADECANOYLPHORBOL-13-ACETATE, 16561-29-8
  tumour outcome (control, treated, inhibition, significance): 70%, 45%, 36%, not calculated

## S=C=Nc1cc2c3ccccc3ccc2c2ccccc12
Carcinogen: BENZO[A]PYRENE, 50-32-8, Dose [Inhibitor]: 0, 5 UMOL IN ACETONE 4 HR PRIOR TO CARCINOGEN DOSE (STUDY DURATION: 20 WK), Route [Inhibitor]: DERMAL, Species: MOUSE, Strain/Sex: STRAIN-A/FEMALE, Target Tissue: Type of Lesion: SKIN: TUMOR, Dose [Carcinogen]: 0.1 UMOL IN ACETONE ONCE, Promoter: 12-O-TETRADECANOYLPHORBOL-13-ACETATE, 16561-29-8
  outcome: 85%, 74%, 13%, not significant at 15 wk; 95%, 80%, 16%, not significant at 20 wk
